In test [1] the target is recombinant human Bcl-2-G101V protein (Homo sapiens (Human), UniProt P10415, G101V). In words: Bcl-2-G101V TR-FRET Assay. It is filed as binding. The following applies: Bcl-2 G101V mutant, TR-FRET; read-out: Biochemical assay (IC50, nM) Bcl-2 G101V. The gist of the method:
(§1)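 Ex337/em490 & 520 nm TR-FRET; % inhibition of Bcl-2-G101V–ligand interaction from 490:520 ratio vs. increasing compound conc.; IC50 by 4-parameter logistic fit.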
Background: In TR-FRET formats the signal depends on donor and acceptor labels being close together.

The test system of test [2] is recombinant human Bcl-2-G101V protein. Briefly: Bcl-2-G101V TR-FRET Assay. It is filed as binding. The following applies: for ratio of IC50 of Bcl-2 G101V/Bcl-2 wt, compared with Example F132b in WO2019210828 and ABT-199 (venetoclax): comparison in words; for Ratio of Bcl-2 G101V/WT: ratio of biochemical IC50 Bcl-2 G101V / Bcl-2 WT. The gist of the method:
as §1

For test [3], the system named is RS4;11 (BCL-2 dependent acute lymphoblastic leukemia cell line). In words: RS4;11 Cell Proliferation Assay. It is filed as cell-based. Conditions: Homo sapiens, RS4;11 cells, read-out: Cellular proliferation assay (IC50, nM) RS4. Put shortly:
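RS4;11 cells, 50,000 per well in RPMI-1640 with 10% FBS, treated 48 h at 37 °C with a 10-point dilution series topping at 1 μM. Viability read by CellTiter-Glo ATP luminescence; mean IC50 reported.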

In test [4] the test system is BCL-2 G101V knock-in cell line H96 (derive from RS4;11). Briefly: Bcl 2-G101V Knock-In RS4;11 Cell Proliferation Assay. It is filed as cell-based. Conditions: Homo sapiens, RS4-11, 48 h, RS4;11 Bcl-2 G101V knock-in clone H96, 48 hrs, CellTiter-GLO, read-out: Cellular proliferation assay (IC50, nM) RS4. The gist of the method: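 H96, a CRISPR-generated RS4;11 clone carrying BCL2-G101V knock-in (WES/RNA-seq validated), seeded 50,000 per well and exposed 48 h at 37 °C to 10-point dilutions topping at 1 or 10 μM. Viability by CellTiter-Glo luminescence; mean IC50.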
A general note: Cellular ATP, detected with luciferase, serves as a proxy for viable cell number.

Consider `COc1ccc(CN2CCN(C3CC4(CCN(c5ccc(C(=O)NS(=O)(=O)c6ccc(NC[C@H]7CC[C@](C)(O)CC7)c([N+](=O)[O-])c6)c(Oc6cnc7[nH]ccc7c6)c5)CC4)C3)[C@H](c3ccccc3C(C)C)C2)cc1` [Example 19a, 2-((1H-pyrrolo[2,3-b]pyridin-5-yl)oxy)-N-((4-((((1r,4r)-4-hydroxy-4-methylcyclohexyl)methyl)amino)-3-nitrophenyl)sulfonyl)-4-(2-((R)-2-(2-isopropylphenyl)-4-(4-methoxybenzyl)piperazin-1-yl)-7-azaspiro[3.5]nonan-7-yl)benzamide], for which the IC50 in test [1] is 0.18 nM; in test [3] it was 0.15 nM; in test [4], 0.57 nM. The “ratio of IC50 of Bcl-2 G101V/Bcl-2 wt, compared with Example F132b in WO2019210828 and ABT-199 (venetoclax)” value in test [2] is reported as “much lower”. In test [2], the “Ratio of Bcl-2 G101V/WT” value is reported as 3.2.

As for `COc1cc(CN2CCN(C3CC4(C3)CN(c3ccc(C(=O)NS(=O)(=O)c5ccc(NC[C@H]6CC[C@](C)(O)CC6)c([N+](=O)[O-])c5)c(Oc5cnc6[nH]cc(F)c6c5)c3)C4)[C@H](c3ccccc3C(C)C)C2)ccc1OC1CC1` [Example 321, 4-(6-((R)-4-(4-cyclopropoxy-3-methoxybenzyl)-2-(2-isopropylphenyl)piperazin-1-yl)-2-azaspiro[3.3]heptan-2-yl)-2-((3-fluoro-1H-pyrolo[2,3-b]pyridin-5-yl)oxy)-N-((4-((((1r,4r)-4-hydroxy-4-methylcyclohexy)methyl)amino)-3-nitrophenyl)sulfonyl)benzamide], the figures for the IC50 in test [1], in test [3] and in test [4] were 0.35 nM, 0.22 nM and 0.24 nM, respectively. Moreover, in test [2], the “Ratio of Bcl-2 G101V/WT” value was found to be 2.

For the compound `COc1cc(CN2CCN(C3CC4(CCN(c5ccc(C(=O)NS(=O)(=O)c6ccc(NC[C@H]7CC[C@](C)(O)CC7)c([N+](=O)[O-])c6)c(Oc6cnc7[nH]ccc7c6)c5)CC4)C3)[C@H](c3ccccc3C(C)C)C2)ccc1C1CC1` [Example 257], the IC50 is 0.99 nM in test [1], 0.15 nM in test [3] and 0.53 nM in test [4]. In addition, the “Ratio of Bcl-2 G101V/WT” value in test [2] stood at 2.5.

With `COc1cc(CN2CCN(C3CC4(CCN(c5ccc(C(=O)NS(=O)(=O)c6ccc(NC[C@H]7CC[C@](C)(O)CC7)c([N+](=O)[O-])c6)c(Oc6cnc7[nH]cc(F)c7c6)c5)CC4)C3)[C@H](c3ccccc3C(C)C)C2)cc2c1OCC2(C)C` [Example 285, 2-((3-fluoro-1H-pyrrolo[2,3-b]pyridin-5-yl)oxy)-N-((4-((((1r,4r)-4-hydroxy-4-methylcyclohexyl)methyl)amino)-3-nitrophenyl)sulfonyl)-4-(2-((R)-2-(2-isopropylphenyl)-4-((7-methoxy-3,3-dimethyl-2,3-dihydrobenzofuran-5-yl)methyl)piperazin-1-yl)-7-azaspiro [3.5]nonan-7-yl)benzamide], the IC50 in test [1] is 0.87 nM; in test [3], 0.18 nM; in test [4], 0.41 nM. For the same compound, the “Ratio of Bcl-2 G101V/WT” value in test [2] came out at 3.4.

For the compound `COc1cc(CN2CCN(C3CC4(CCN(c5ccc(C(=O)NS(=O)(=O)c6ccc(NC[C@H]7CC[C@](C)(O)CC7)c([N+](=O)[O-])c6)c(Oc6cnc7[nH]cc(F)c7c6)c5)CC4)C3)[C@H](c3ccccc3C(C)C)C2)cc2ccoc12` [Example 281, 2-((3-fluoro-1H-pyrrolo[2,3-b]pyridin-5-yl)oxy)-N-((4-((((1r,4r)-4-hydroxy-4-methylcyclohexyl)methyl)amino)-3-nitrophenyl)sulfonyl)-4-(2-((R)-2-(2-isopropylphenyl)-4-((7-methoxybenzofuran-5-yl)methyl)piperazin-1-yl)-7-azaspiro[3.5]nonan-7-yl)benzamide], the IC50 was 0.99 nM in test [1], 0.13 nM in test [3] and 0.31 nM in test [4]. Moreover, in test [2], the “Ratio of Bcl-2 G101V/WT” value is 2.3.

In the case of `COc1ccc(CN2CCN(C3CC4(C3)CN(c3ccc(C(=O)NS(=O)(=O)c5ccc(NC[C@H]6CC[C@](C)(O)CC6)c([N+](=O)[O-])c5)c(Oc5cnc6[nH]ccc6c5)c3)C4)[C@H](c3ccccc3C(C)C)C2)cc1` [Example 147, 2-((1H-pyrrolo[2,3-b]pyridin-5-yl)oxy)-N-((4-((((1r,4r)-4-hydroxy-4-methylcyclohexyl)methyl)amino)-3-nitrophenyl)sulfonyl)-4-(6-((R)-2-(2-isopropylphenyl)-4-(4-methoxybenzyl)piperazin-1-yl)-2-azaspiro[3.3]heptan-2-yl) benzamide], the figures for the IC50 in test [1], in test [3] and in test [4] were 0.17 nM, 0.14 nM and 0.588 nM, respectively. Also, the “Ratio of Bcl-2 G101V/WT” value in test [2] stood at 3.1.

For `CC(C)c1ccccc1C1CN(Cc2ccccc2F)CCN1C1CC2(CCN(c3ccc(C(=O)NS(=O)(=O)c4ccc(NC[C@H]5CC[C@](C)(O)CC5)c([N+](=O)[O-])c4)c(Oc4cnc5[nH]ccc5c4)c3)CC2)C1` (some centres unmarked) [Example 46, 2-((1H-pyrrolo[2,3-b]pyridin-5-yl)oxy)-4-(2-(4-(2-fluorobenzyl)-2-(2-isopropylphenyl)piperazin-1-yl)-7-azaspiro[3.5]nonan-7-yl)-N-((4-((((1r,4r)-4-hydroxy-4-methylcyclohexyl)methyl)amino)-3-nitrophenyl)sulfonyl)benzamide], the values for the IC50 in test [1], in test [3] and in test [4] were 2.7 nM, 0.91 nM and 10.2 nM, respectively. For the same compound, in test [2], the “Ratio of Bcl-2 G101V/WT” value is reported as 7.9.

Consider `CC(C)c1ccccc1[C@@H]1CN(Cc2ccc(F)c(F)c2)CCN1C1CC2(CCN(c3ccc(C(=O)NS(=O)(=O)c4ccc(NC[C@H]5CC[C@](C)(O)CC5)c([N+](=O)[O-])c4)c(Oc4cnc5[nH]ccc5c4)c3)CC2)C1` (single isomer, unassigned) [Example 52a, 2-((1H-pyrrolo[2,3-b]pyridin-5-yl)oxy)-4-(2-((R or S)-4-(3,4-difluorobenzyl)-2-(2-isopropylphenyl)piperazin-1-yl)-7-azaspiro[3.5]nonan-7-yl)-N-((4-((((1r,4r)-4-hydroxy-4-methylcyclohexyl)methyl)amino)-3-nitrophenyl)sulfonyl)benzamide], for which the IC50 in test [1] was found to be 0.68 nM; in test [3], 0.25 nM; in test [4] it was 1.67 nM. In addition, in test [2], the “Ratio of Bcl-2 G101V/WT” value is given as 4.2.

`COc1cc(CN2CCN(C3CC4(C3)CN(c3ccc(C(=O)NS(=O)(=O)c5ccc(NC[C@H]6CC[C@](C)(O)CC6)c([N+](=O)[O-])c5)c(Oc5cnc6[nH]cc(F)c6c5)c3)C4)[C@H](c3ccccc3C(C)C)C2)ccc1C` [Example 274, 2-((3-fluoro-1H-pyrrolo[2,3-b]pyridin-5-yl)oxy)-N-((4-((((1r,4r)-4-hydroxy-4-methylcyclohexyl)methyl)amino)-3-nitrophenyl)sulfonyl)-4-(6-((R)-2-(2-isopropylphenyl)-4-(3-methoxy-4-methylbenzyl)piperazin-1-yl)-2-azaspiro[3.3]heptan-2-yl) benzamide]: the IC50 in test [1] worked out at 0.85 nM; in test [3], 0.15 nM; in test [4] it was 0.29 nM. Further, the “Ratio of Bcl-2 G101V/WT” value in test [2] was found to be 1.5.

With `CC(C)c1ccccc1C1CN(Cc2cc(F)cc(F)c2)CCN1C1CC2(CCN(c3ccc(C(=O)NS(=O)(=O)c4ccc(NC[C@H]5CC[C@](C)(O)CC5)c([N+](=O)[O-])c4)c(Oc4cnc5[nH]ccc5c4)c3)CC2)C1` (some centres unmarked) [Example 51, 2-((1H-pyrrolo[2,3-b]pyridin-5-yl)oxy)-4-(2-(4-(3,5-difluorobenzyl)-2-(2-isopropylphenyl)piperazin-1-yl)-7-azaspiro[3.5]nonan-7-yl)-N-((4-((((1r,4r)-4-hydroxy-4-methylcyclohexyl)methyl)amino)-3-nitrophenyl)sulfonyl)benzamide], the IC50 came to 1.6 nM in test [1], 0.49 nM in test [3] and 4 nM in test [4]. The “Ratio of Bcl-2 G101V/WT” value in test [2] stood at 3.8.

In the case of `CC(C)c1ccccc1C1CN(Cc2cccc(F)c2)CCN1C1CC2(CCN(c3ccc(C(=O)NS(=O)(=O)c4ccc(NC[C@H]5CC[C@](C)(O)CC5)c([N+](=O)[O-])c4)c(Oc4cnc5[nH]ccc5c4)c3)CC2)C1` (some centres unmarked) [Example 43, 2-((1H-pyrrolo[2,3-b]pyridin-5-yl)oxy)-4-(2-(4-(3-fluorobenzyl)-2-(2-isopropylphenyl)piperazin-1-yl)-7-azaspiro[3.5]nonan-7-yl)-N-((4-((((1r,4r)-4-hydroxy-4-methylcyclohexyl)methyl)amino)-3-nitrophenyl)sulfonyl)benzamide], the IC50 in test [1] is 1.3 nM; in test [3], 0.48 nM; in test [4] it was 3.27 nM. In addition, the “Ratio of Bcl-2 G101V/WT” value in test [2] was determined as 4.2.

Take `COc1cc(CN2CCN(C3CC4(C3)CN(c3ccc(C(=O)NS(=O)(=O)c5ccc(NC[C@H]6CC[C@](C)(O)CC6)c([N+](=O)[O-])c5)c(Oc5cnc6[nH]ccc6c5)c3)C4)[C@H](c3ccccc3C(C)C)C2)ccc1C1CC1` [Example 233, 2-((1H-pyrrolo[2,3-b]pyridin-5-yl)oxy)-4-(6-((R)-4-(4-cyclopropyl-3-methoxybenzyl)-2-(2-isopropylphenyl)piperazin-1-yl)-2-azaspiro[3.3]heptan-2-yl)-N-((4-((((1r,4r)-4-hydroxy-4-methylcyclohexyl)methyl)amino)-3-nitrophenyl)sulfonyl)benzamide]: the IC50 in test [1] came out at 0.95 nM; in test [3], 0.13 nM; in test [4], 0.25 nM. In test [2], the “ratio of IC50 of Bcl-2 G101V/Bcl-2 wt, compared with Example F132b in WO2019210828 and ABT-199 (venetoclax)” value is “much lower”. Further, the “Ratio of Bcl-2 G101V/WT” value in test [2] was determined as 2.2.
